Consider twelve compounds from patent US9499550B2 (BRISTOL-MYERS SQUIBB COMPANY, priority 2012, dated 2016).

A value given as a limit tells only on which side of the number the result lay.

For experiment [1], the system named is HCV genotype 1a (H77 strain) replicon in HUH-7 cells. The experiment in a line: HCV replicon luciferase reporter assay, genotype 1a. Format: cell-based. The note with it: Hepatitis C virus, Huh-7, 72 h, HCV genotype 1a replicon luciferase assay, 3 days incubation, range class, read-out: LE_1a (EC50, range). In short, it runs like this: (§1)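 Replicon inhibition for both genotypes was measured as Renilla luciferase signal (EnduRen, 7.5 μM final, 2 h) after 3-day, 37° C exposure of replicon-bearing HUH-7 cells in 4% FCS DMEM, 0.5% DMSO. The 1b construct carries S1179I; the 1a H77 construct carries P1496L and S2204I. Twenty-point, 3-fold dilutions were fitted four-parametrically for EC50, and CC50 was taken from multiplexed Cell Titer-Blue.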
(In antiviral work, replicon cells carry a viral genome segment that copies itself.)

Experiment [2] concerns HCV genotype 1b (Con1) replicon in HUH-7 cells. The experiment in a line: HCV replicon luciferase reporter assay, genotype 1b. In kind it is cell-based. The note with it: Hepatitis C virus, Huh-7, 72 h, HCV genotype 1b replicon luciferase assay, 3 days incubation, range class, read-out: LE_1b (EC50, range). Put shortly:
as §1

Turning to `C[C@@H]1CC/C=C\[C@@H]2C[C@@]2(C(=O)NS(=O)(=O)C2CC2)NC(=O)[C@@H]2C[C@@H](Oc3nc(OCC(F)F)cc4c(Cl)cccc34)CN2C(=O)[C@@H](NC(=O)O[C@H](C)C(F)(F)F)[C@H](C)C1` [Compound 1100, (R)-1,1,1-trifluoropropan-2-yl ((2R,6S,7R,9R,13aS,14aR,16aS,Z)-2-((5-chloro-3-(2,2-difluoroethoxyl)isoquinolin-1-yl)oxy)-14a-((cyclopropylsulfonyl)carbamoyl)-7,9-dimethyl-5,16-dioxo-1,2,3,5,6,7,8,9,10,11,13a,14,14a,15,16,16a-hexadecahydrocyclopropa[e]pyrrolo[1,2-a][1,4]diazacyclopentadecin-6-yl)carbamate], the concentration for a half-maximal effect (EC50) in experiment [1] and in experiment [2] was less than 5.46 nM in each case.
Regarding `CC(C)Oc1cc2c(Cl)cccc2c(O[C@@H]2C[C@H]3C(=O)N[C@]4(C(=O)NS(=O)(=O)C5(C)CC5)C[C@H]4/C=C\CC[C@H](C)C[C@@H](C)[C@H](NC(=O)OC(C)(C)C(F)(F)F)C(=O)N3C2)n1` [Compound 1101, 1,1,1-trifluoro-2-methylpropan-2-yl((2R,6S,7R,9S,13aS,14aR,16aS,Z)-2-((5-chloro-3-isopropoxyisoquinolin-1-yl)oxy)-7,9-dimethyl-14a-(((1-methylcyclopropyl)sulfonyl)carbamoyl)-5,16-dioxo-1,2,3,5,6,7,8,9,10,11,13a,14,14a,15,16,16a-hexadecahydrocyclopropa[e]pyrrolo[1,2-a][1,4]diazacyclopentadecin-6-yl)carbamate], the EC50 in experiment [1] and in experiment [2] was 4.82 to 103 nM throughout.
For `CC(C)Oc1cc2c(Cl)cccc2c(O[C@@H]2C[C@H]3C(=O)N[C@]4(C(=O)NS(=O)(=O)C5(C)CC5)C[C@H]4/C=C\CC[C@@H](C)C[C@@H](C)[C@H](NC(=O)OC(C)(C)C(F)(F)F)C(=O)N3C2)n1` [Compound 1102, 1,1,1-trifluoro-2-methylpropan-2-yl((2R,6S,7R,9R,13aS,14aR,16aS,Z)-2-((5-chloro-3-isopropoxyisoquinolin-1-yl)oxy)-7,9-dimethyl-14a-(((1-methylcyclopropyl)sulfonyl)carbamoyl)-5,16-dioxo-1,2,3,5,6,7,8,9,10,11,13a,14,14a,15,16,16a-hexadecahydrocyclopropa[e]pyrrolo[1,2-a][1,4]diazacyclopentadecin-6-yl)carbamate], the EC50 in experiment [1] and in experiment [2] was less than 5.46 nM throughout.
For `CC(C)Oc1cc2c(Cl)cccc2c(O[C@@H]2C[C@H]3C(=O)N[C@]4(C(=O)NS(=O)(=O)C5(C)CC5)C[C@H]4/C=C\CC[C@H](C)C[C@@H](C)[C@H](NC(=O)OC(C)(C)C(C)(F)F)C(=O)N3C2)n1` [Compound 1103, 3,3-difluoro-2-methylbutan-2-yl((2R,6S,7R,9S,13aS,14aR,16aS,Z)-2-((5-chloro-3-isopropoxyisoquinolin-1-yl)oxy)-7,9-dimethyl-14a-(((1-methylcyclopropyl)sulfonyl)carbamoyl)-5,16-dioxo-1,2,3,5,6,7,8,9,10,11,13a,14,14a,15,16,16a-hexadecahydrocyclopropa[e]pyrrolo[1,2-a][1,4]diazacyclopentadecin-6-yl)carbamate], the EC50 – broadly, the concentration needed to bring the measured effect to its halfway point – in experiment [1] is 4.82 to 103 nM; in experiment [2], less than 5.46 nM.
In the case of `CC(C)Oc1cc2c(Cl)cccc2c(O[C@@H]2C[C@H]3C(=O)N[C@]4(C(=O)NS(=O)(=O)C5(C)CC5)C[C@H]4/C=C\CC[C@@H](C)C[C@@H](C)[C@H](NC(=O)OC(C)(C)C(C)(F)F)C(=O)N3C2)n1` [Compound 1104, 3,3-difluoro-2-methylbutan-2-yl((2R,6S,7R,9R,13aS,14aR,16aS,Z)-2-((5-chloro-3-isopropoxyisoquinolin-1-yl)oxy)-7,9-dimethyl-14a-(((1-methylcyclopropyl)sulfonyl)carbamoyl)-5,16-dioxo-1,2,3,5,6,7,8,9,10,11,13a,14,14a,15,16,16a-hexadecahydrocyclopropa[e]pyrrolo[1,2-a][1,4]diazacyclopentadecin-6-yl)carbamate], the EC50 in experiment [1] and in experiment [2] was less than 5.46 nM throughout.
For the compound `CC(C)Oc1cc2c(Cl)cccc2c(O[C@@H]2C[C@H]3C(=O)N[C@]4(C(=O)NS(=O)(=O)C5CC5)C[C@H]4/C=C\CC[C@H](C)C[C@@H](C)[C@H](NC(=O)OC(C)(C)C(C)(F)F)C(=O)N3C2)n1` [Compound 1105, 3,3-difluoro-2-methylbutan-2-yl((2R,6S,7R,9S,13aS,14aR,16aS,Z)-2-((5-chloro-3-isopropoxyisoquinolin-1-yl)oxy)-14a-((cyclopropylsulfonyl)carbamoyl)-7,9-dimethyl-5,16-dioxo-1,2,3,5,6,7,8,9,10,11,13a,14,14a,15,16,16a-hexadecahydrocyclopropa[e]pyrrolo[1,2-a][1,4]diazacyclopentadecin-6-yl)carbamate], the EC50 in experiment [1] and in experiment [2] was less than 5.46 nM in each case.
With `CC(C)Oc1cc2c(Cl)cccc2c(O[C@@H]2C[C@H]3C(=O)N[C@]4(C(=O)NS(=O)(=O)C5CC5)C[C@H]4/C=C\CC[C@@H](C)C[C@@H](C)[C@H](NC(=O)OC(C)(C)C(C)(F)F)C(=O)N3C2)n1` [Compound 1106, 3,3-difluoro-2-methylbutan-2-yl((2R,6S,7R,9R,13aS,14aR,16aS,Z)-2-((5-chloro-3-isopropoxyisoquinolin-1-yl)oxy)-14a-((cyclopropylsulfonyl)carbamoyl)-7,9-dimethyl-5,16-dioxo-1,2,3,5,6,7,8,9,10,11,13a,14,14a,15,16,16a-hexadecahydrocyclopropa[e]pyrrolo[1,2-a][1,4]diazacyclopentadecin-6-yl)carbamate], the 50% effective concentration (EC50) in experiment [1] and in experiment [2] was less than 5.46 nM each time.
In the case of `C[C@H]1CC/C=C\[C@@H]2C[C@@]2(C(=O)NS(=O)(=O)C2(C)CC2)NC(=O)[C@@H]2C[C@@H](Oc3nc(OCC(F)F)cc4c(Cl)cccc34)CN2C(=O)[C@@H](NC(=O)O[C@H](C)C(F)(F)F)[C@H](C)C1` [Compound 1107, (R)-1,1,1-trifluoropropan-2-yl ((2R,6S,7R,9S,13aS,14aR,16aS,Z)-2-((5-chloro-3-(2,2-difluoroethoxyl)isoquinolin-1-yl)oxy)-7,9-dimethyl-14a-(((1-methylcyclopropyl)sulfonyl)carbamoyl)-5,16-dioxo-1,2,3,5,6,7,8,9,10,11,13a,14,14a,15,16,16a-hexadecahydrocyclopropa[e]pyrrolo[1,2-a][1,4]diazacyclopentadecin-6-yl)carbamate], the EC50 was 4.82 to 103 nM in experiment [1] and less than 5.46 nM in experiment [2].
In the same order, the values of `C[C@@H]1CC/C=C\[C@@H]2C[C@@]2(C(=O)NS(=O)(=O)C2(C)CC2)NC(=O)[C@@H]2C[C@@H](Oc3nc(OCC(F)F)cc4c(Cl)cccc34)CN2C(=O)[C@@H](NC(=O)O[C@H](C)C(F)(F)F)[C@H](C)C1` [Compound 1108, (R)-1,1,1-trifluoropropan-2-yl ((2R,6S,7R,9R,13aS,14aR,16aS,Z)-2-((5-chloro-3-(2,2-difluoroethoxyl)isoquinolin-1-yl)oxy)-7,9-dimethyl-14a-(((1-methylcyclopropyl)sulfonyl)carbamoyl)-5,16-dioxo-1,2,3,5,6,7,8,9,10,11,13a,14,14a,15,16,16a-hexadecahydrocyclopropa[e]pyrrolo[1,2-a][1,4]diazacyclopentadecin-6-yl)carbamate] are less than 5.46 nM and less than 5.46 nM.
In the same order, the values of `C[C@@H]1CC/C=C\[C@@H]2C[C@@]2(C(=O)NS(=O)(=O)C2(C)CC2)NC(=O)[C@@H]2C[C@@H](Oc3nc(OCC(F)F)cc4c(Cl)cccc34)CN2C(=O)[C@@H](NC(=O)OC(C)(C)C(C)(F)F)[C@H](C)C1` [Compound 1110, 3,3-difluoro-2-methylbutan-2-yl((2R,6S,7R,9R,13aS,14aR,16aS,Z)-2-((5-chloro-3-(2,2-difluoroethoxyl)isoquinolin-1-yl)oxy)-7,9-dimethyl-14a-(((1-methylcyclopropyl)sulfonyl)carbamoyl)-5,16-dioxo-1,2,3,5,6,7,8,9,10,11,13a,14,14a,15,16,16a-hexadecahydrocyclopropa[e]pyrrolo[1,2-a][1,4]diazacyclopentadecin-6-yl)carbamate] are less than 5.46 nM and less than 5.46 nM.
In the same order, the values of `C[C@H]1CC/C=C\[C@@H]2C[C@@]2(C(=O)NS(=O)(=O)C2CC2)NC(=O)[C@@H]2C[C@@H](Oc3nc(OCC(F)F)cc4c(Cl)cccc34)CN2C(=O)[C@@H](NC(=O)OC(C)(C)C(C)(F)F)[C@H](C)C1` [Compound 1111, 3,3-difluoro-2-methylbutan-2-yl((2R,6S,7R,9S,13aS,14aR,16aS,Z)-2-((5-chloro-3-(2,2-difluoroethoxyl)isoquinolin-1-yl)oxy)-14a-((cyclopropylsulfonyl)carbamoyl)-7,9-dimethyl-5,16-dioxo-1,2,3,5,6,7,8,9,10,11,13a,14,14a,15,16,16a-hexadecahydrocyclopropa[e]pyrrolo[1,2-a][1,4]diazacyclopentadecin-6-yl)carbamate] are less than 5.46 nM and less than 5.46 nM.
As to `C[C@@H]1CC/C=C\[C@@H]2C[C@@]2(C(=O)NS(=O)(=O)C2CC2)NC(=O)[C@@H]2C[C@@H](Oc3nc(OCC(F)F)cc4c(Cl)cccc34)CN2C(=O)[C@@H](NC(=O)OC(C)(C)C(C)(F)F)[C@H](C)C1` [Compound 1112, 3,3-difluoro-2-methylbutan-2-yl((2R,6S,7R,9R,13aS,14aR,16aS,Z)-2-((5-chloro-3-(2,2-difluoroethoxyl)isoquinolin-1-yl)oxy)-14a-((cyclopropylsulfonyl)carbamoyl)-7,9-dimethyl-5,16-dioxo-1,2,3,5,6,7,8,9,10,11,13a,14,14a,15,16,16a-hexadecahydrocyclopropa[e]pyrrolo[1,2-a][1,4]diazacyclopentadecin-6-yl)carbamate], the EC50 in experiment [1] and in experiment [2] was less than 5.46 nM in each case.
